Laboratory results from patent publication US20220039383A1, “Use of the Succinate Dehydrogenase Inhibitor Fluopyram for Controlling Claviceps Purpurea and Reducing Sclerotia in Cereals” (Bayer Aktiengesellschaft, priority 2018, published 2022).

Assays:
[1] = tested on: spring wheat variety CTC Utmost; test: Field test plot 2017, Canada: yield of spring wheat treated against Claviceps purpurea; assay type: in vivo; conditions: EC 150 g/l, 1.333 L/HA, 200 g/ha, untreated = 100
Protocol: (§1) In Canada, in 2017, a test plot was conducted with the spring wheat variety CTC Utmost. Fluopyram as well as market standards were applied according to table 1 on July 7th between BBCH stage59 and 61 (. Assessment of sclerotia was done in fall 2017 96 days post application.

Claviceps purpurea = test: Field test plot 2017, Canada: foliar application, assessment of sclerotia (ergot bodies) in spring wheat CTC Utmost; assay type: in vivo; conditions: EC 150 g/l, 1.333 L/HA, 200 g/ha, applied BBCH 59-61, 96 days post application
Protocol: as §1

O=C(NCCc1ncc(C(F)(F)F)cc1Cl)c1ccccc1C(F)(F)F [Fluopyram, N-{[3-chloro-5-(trifluoromethyl)-2-pyridinyl]ethyl}-2-trifluoromethylbenzamide]
% yield compared to Untreated [1]: 109.85% | Number of Ergot bodies per kg seed (Claviceps purpurea): 5 per kg seed
